Experimental data from publication PMC8691750, “Euphorbia Factor L2 ameliorates the Progression of K/BxN Serum-Induced Arthritis by Blocking TLR7 Mediated IRAK4/IKKβ/IRF5 and NF-kB Signaling Pathways” (Frontiers in Pharmacology, 2021).

Tests used:
[1] = test system: bone marrow-derived macrophages (BMDMs); assay: Cell viability, CCK8 assay, BMDMs; assay type: cell-based, C57BL/6 mice; conditions: CCK8, 0.1-100 μM, 20 h
Method: (§1) RAW264.7 cells, a mouse macrophage cell line, were cultured in DMEM medium containing 10% fetal bovine serum (FBS), 1% penicillin-streptomycin and maintained at 37 °C in 5% CO2 humidified air. Bone marrow-derived macrophages (BMDMs) generation was performed as following description. In brief, bone marrow cells were harvested from tibias and femurs of C57BL/6 mice and differentiated for 7 days in DMEM medium supplemented with 10% FBS, 1% penicillin-streptomycin and 50 ng/ml M-CSF. For human peripheral blood mononuclear cells (PBMCs) preparation, 5 ml peripheral venous blood was obtained from healthy donors in West China Hospital. PBMCs were isolated with Human Lymphocyte Separation Medium (LTS1077, Tian Jing, China) according to the manufacturer’s instructions. The experimental protocols were performed according to the approved guidelines established by the Institutional Human Research Subject Protection Committee of the Ethics Committee of West China Hospital, Sichuan University, China.
(§2) The effects of EFL2 on RAW264.7 cells, BMDMs and PBMCs viability were evaluated by Cell Counting Kit-8 (CCK8) assay (Dojindo, Japan). […] The optical absorbance at 450 nm was read with a Biotek Eon™ microplate reader (Biotek, Vermont, United States).

PBMCs = assay: Cell viability, CCK8 assay, PBMCs; assay type: cell-based, human; conditions: CCK8, at 100 μM
Method: as §1, §2

[2] = test system: TLR7 (R837) / TLR3 (poly:IC) induced cytokine production in RAW264.7 cells; assay: ELISA of IL-1β and IL-6 in supernatant of R837 and/or poly:IC stimulated RAW264.7 cells; assay type: cell-based, mouse
Method: RAW264.7 cells (5×10^5/ml), BMDMs (5×10^5/ml) and PBMCs (2×10^6/ml) were plated in 96-well plates and incubated overnight. […] For the anti-inflammatory molecular mechanism study, RAW264.7 cells (5×10^5/ml) were plated in 96-well plates and stimulated with R837 (20 μg/ml) with or without the addition of NF-κB inhibitor (JSH-23, […]) for 24 h. After 24 h, the culture supernatant was collected for cytokines measurements.
IL-4, IL-17A and TNF-α in sera from different group mice were measured using CBA Multiplex kit (BD, United States). The concentrations of IL-1β and IL-6 in serum or supernatant were detected by ELISA Kit (MULTI SCIENCES, China) according to the manufacturers’ instructions.

[3] = test system: TLR7-mediated NF-κB signaling pathway (IKKα/β, IκBα, p65); assay: Western blot, NF-κB pathway in R837-stimulated RAW264.7 cells; assay type: cell-based, mouse; conditions: R837-stimulated RAW264.7
Method: RAW264.7 cells (2×10^6 cells/well) were plated into 6-well plates and then incubated at 37°C in 5% CO2 for 24 h. After incubated with various concentrations of EFL2 (1, 5 and 10 µM) for 1 h, cells were then stimulated by R837 (20 μg/ml) for 30 min. Cell lysates were prepared by direct lysis in 20 µL IP buffer (Beyotime Biotechnology, Shanghai, China). After obtaining the whole cell extracts, the cytosolic and nuclear were seperated using Nuclear and Cytoplasmic Protein Extraction Kit (Beyotime Biotechnology, Shanghai, China). BCA Protein Assay Kit (Beyotime Biotechnology, Nantong, China) was applied to determine the protein concentrations. The bands corresponding to p- IKKα/β, IKKα/β, p-IκBα, IκBα, p-p65, p65, p-IRAK4, IRAK4, p-IKKβ, IKKβ, p-IRF5, IRF5, β-actin and Lamin B were visualized using a Western Blot Detection Chemiluminescence Kit (Merck). Protein extracted from the total lysates/cytoplasm and nucleus was quantified in relation to β-actin and Lamin B bands, respectively.
The antibodies used in the experiments were as follows: rabbit anti-mouse IKKα/β polyclonal antibody (1:1,000, Abways, China), rabbit anti-mouse IκBα polyclonal antibody (1:1,000, Abgent, China), rabbit anti-mouse p65 polyclonal antibody (1:1,000, Abgent, China), rabbit anti-mouse phosphorylated IKKα (Ser176)/β (Ser177) (1:1,000, Abways, China), rabbit anti-mouse phosphorylated IκBα (1:1,000, Abcam, United States), rabbit anti-mouse phosphorylated p65 (1:1,000, Abcam, United States), rabbit anti-mouse IRAK4 polyclonal antibody (1:1,000, Proteintech, United States), rabbit anti-mouse phosphorylated IRAK4 (Thr345/Ser346) (1:1,000, Affinity, United States), rabbit anti-mouse IKKβ polyclonal antibody (1:1,000, Abbkine, United States), rabbit anti-mouse phosphorylated IKKβ (Ser177) (1:1,000, Abways, China), rabbit anti-mouse IRF5 polyclonal antibody (1:1,000, Immunoway, United States), rabbit anti-mouse phosphorylated IRF5 (Ser437) (1:1,000, Affinity, United States), anti-mouse actin monoclonal antibody (1:20,000, Transgen, China) and rabbit anti-mouse LaminB monoclonal antibody (1:5,000, Abways, China).

IRF5 = biological target: T1, IRF5 (Mus musculus, UniProt P56477); assay: IRF5 plasmid transfection (overexpression) in RAW264.7 cells; assay type: cell-based; conditions: RAW264.7 transfected with IRF5 plasmid
T1 construct: host or cells: RAW264.7
T1 sequence (P56477 whole entry): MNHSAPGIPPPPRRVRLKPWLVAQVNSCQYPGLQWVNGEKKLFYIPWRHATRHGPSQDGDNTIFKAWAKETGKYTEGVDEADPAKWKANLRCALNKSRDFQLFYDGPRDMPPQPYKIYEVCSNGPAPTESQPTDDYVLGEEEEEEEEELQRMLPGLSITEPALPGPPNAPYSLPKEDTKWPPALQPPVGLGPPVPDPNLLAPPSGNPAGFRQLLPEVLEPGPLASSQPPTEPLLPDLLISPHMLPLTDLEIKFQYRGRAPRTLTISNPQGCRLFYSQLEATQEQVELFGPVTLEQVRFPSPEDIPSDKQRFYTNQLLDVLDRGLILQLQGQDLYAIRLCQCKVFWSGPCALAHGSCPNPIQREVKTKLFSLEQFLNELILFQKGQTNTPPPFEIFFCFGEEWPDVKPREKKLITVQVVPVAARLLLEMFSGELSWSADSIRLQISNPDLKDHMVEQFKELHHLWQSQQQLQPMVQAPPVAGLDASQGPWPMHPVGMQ
Method: RAW264.7 cells (4×10^5 cells/well) were seeded into 6-well plates before transfection with the plasmid. When cells confluency reached 60%, RAW264.7 cells were transfected with plasmid IRF5-mouse vector (Origene, United States) using TransEasy™ Transfection Reagent (FOREGENE, China). IRF5 plasmid was suspended with transfection reagent as 1:1.5. Cells were incubated at 37°C for 24 h, then treated with EFL2 and R837 for another 24 h. The supernatant was collected for IL-1β and IL-6 measurements using ELISA kits as described above. For western blot detection, RAW264.7 cells were pretreated with EFL2 (10 µM) for 1 h and stimulated with R837 (20 μg/ml) for 40 min after IRF5 plasmid transfection. Cell lysates were prepared as described above.

[4] = test system: SMMC-7721 and Hep G2 cells; design: method as in Fan et al., 2019; conditions: via STAT3 phosphorylation; ref Fan et al., 2019; cited from earlier work

## C=C1C(OC(=O)c2ccccc2)CC2C(C=C(C)C(=O)C3(OC(C)=O)CC(C)C(OC(=O)c4ccccc4)C3C1OC(C)=O)C2(C)C (stereo not shown) [EFL2, Euphorbia factor L2]
[1]
  concentration at which significant cytotoxicity is displayed: ≥ 25 µM
PBMCs
  PBMCs viability: did not affect
[2]; R837-stimulated RAW264.7, EFL2 10 μM
  inhibitory ability on IL-1β and IL-6 production compared to JSH-23: stronger inhibitory ability
[2]; R837-stimulated RAW264.7, EFL2 0.1-10 μM
  IL-6 production: dose-dependently reduced
[2]; R837-stimulated RAW264.7, EFL2 at 0.1 μM
  IL-1β secretion: effectively inhibit
[2]; RAW264.7 co-stimulated by poly (I:C) and R837, various concentrations of EFL2
  levels of IL-1β and IL-6 in the supernatant: to different expent decreased
[3]; EFL2 1, 5, 10 μM
  IKKα/β phosphorylation: effectively inhibited
  IκB-α phosphorylation: effectively inhibited
  p65 phosphorylation: effectively inhibited
[3]; EFL2, also immunofluorescence
  NF-κB subunit p65 translocation activity: significantly suppressed
IRF5; EFL2 10 μM, R837
  suppressive effect of EFL2 on nuclear translocation of IRF5 after overexpression of IRF5: significantly reversed
IRF5; EFL2 and R837 24 h
  EFL2-induced reduction of IL-1β and IL-6 after overexpression of IRF5: effectively reversed
[4]
  SMMC-7721 and Hep G2 cells proliferation and migration: suppressing
